PubChem BioAssay (NCI)
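Abbreviation: GI50, concentration required for 50% inhibition of growth. The concentration for full growth arrest is given as TGI.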

Columns and labels:
Assay in all cases: NCI tumour cell line growth inhibition, 384-well format
786-0 renal = system: 786-0 renal
A498 renal = system: A498 renal
A549 NSCLC = system: A549 NSCLC
ACHN renal = system: ACHN renal
BT-549 breast = system: BT-549 breast
CAKI-1 renal = system: CAKI-1 renal
COLO 205 colon = system: COLO 205 colon
DU-145 prostate = system: DU-145 prostate
EKVX NSCLC = system: EKVX NSCLC
HCT-116 colon = system: HCT-116 colon
HCT-15 colon = system: HCT-15 colon
HL-60(TB) leukemia = system: HL-60(TB) leukemia
HOP-62 NSCLC = system: HOP-62 NSCLC
HOP-92 NSCLC = system: HOP-92 NSCLC
HS 578T breast = system: HS 578T breast
HT29 colon = system: HT29 colon
IGROV1 ovarian = system: IGROV1 ovarian
K-562 leukemia = system: K-562 leukemia
KM12 colon = system: KM12 colon
M14 melanoma = system: M14 melanoma
MALME-3M melanoma = system: MALME-3M melanoma
MCF7 breast = system: MCF7 breast
MDA-MB-231 breast = system: MDA-MB-231 breast
MDA-MB-435 melanoma = system: MDA-MB-435 melanoma
MDA-MB-468 breast = system: MDA-MB-468 breast
MOLT-4 leukemia = system: MOLT-4 leukemia
NCI-H226 lung = system: NCI-H226 lung
NCI-H23 lung = system: NCI-H23 lung
NCI-H322M lung = system: NCI-H322M lung
NCI-H460 NSCLC = system: NCI-H460 NSCLC
NCI-H522 lung = system: NCI-H522 lung
OVCAR-3 ovarian = system: OVCAR-3 ovarian
OVCAR-4 ovarian = system: OVCAR-4 ovarian
OVCAR-5 ovarian = system: OVCAR-5 ovarian
OVCAR-8 ovarian = system: OVCAR-8 ovarian
PC-3 prostate = system: PC-3 prostate
RXF 393 renal = system: RXF 393 renal
SF-268 CNS = system: SF-268 CNS
SF-295 CNS = system: SF-295 CNS
SF-539 CNS = system: SF-539 CNS
SK-MEL-2 melanoma = system: SK-MEL-2 melanoma
SK-MEL-28 melanoma = system: SK-MEL-28 melanoma
SK-MEL-5 melanoma = system: SK-MEL-5 melanoma
SK-OV-3 ovarian = system: SK-OV-3 ovarian
SN12C renal = system: SN12C renal
SNB-19 CNS = system: SNB-19 CNS
SNB-75 CNS = system: SNB-75 CNS
SR leukemia = system: SR leukemia
SW-620 colon = system: SW-620 colon
T-47D breast = system: T-47D breast
TK-10 renal = system: TK-10 renal
U251 glioblastoma = system: U251 glioblastoma
UACC-257 melanoma = system: UACC-257 melanoma
UACC-62 melanoma = system: UACC-62 melanoma
UO-31 renal = system: UO-31 renal

Compound: C[C@@H](N)COc1ccc(-c2cnc3ccc(N[C@H](C)c4cccc(F)c4)nn23)cc1
- GI50 ([…]-0 renal): 1.55 µM
- TGI (786-0 renal): 2.9 µM
- GI50 (A498 renal): 1.59 µM
- TGI (A498 renal): 2.96 µM
- GI50 (A549 NSCLC): 1.56 µM
- TGI (A549 NSCLC): 2.94 µM
- GI50 (ACHN renal): 1.57 µM
- TGI (ACHN renal): 2.94 µM
- GI50 (BT-549 breast): 1.37 µM
- TGI (BT-549 breast): 2.66 µM
- GI50 (CAKI-1 renal): 1.68 µM
- TGI (CAKI-1 renal): 3.05 µM
- GI50 (COLO 205 colon): 1.62 µM
- TGI (COLO 205 colon): 3.01 µM
- GI50 (DU-145 prostate): 1.53 µM
- TGI (DU-145 prostate): 2.96 µM
- GI50 (EKVX NSCLC): 1.02 µM
- TGI (EKVX NSCLC): 2.22 µM
- GI50 (HCT-116 colon): 1.49 µM
- TGI (HCT-116 colon): 2.86 µM
- GI50 (HCT-15 colon): 1.63 µM
- TGI (HCT-15 colon): 3.04 µM
- GI50 (HL-60(TB) leukemia): 1.07 µM
- TGI (HL-60(TB) leukemia): 2.27 µM
- GI50 (HOP-62 NSCLC): 1.73 µM
- TGI (HOP-62 NSCLC): 3.16 µM
- GI50 (HOP-92 NSCLC): 1.51 µM
- TGI (HOP-92 NSCLC): 2.85 µM
- GI50 (HS 578T breast): 1.47 µM
- TGI (HS 578T breast): 2.8 µM
- GI50 (HT29 colon): 1.3 µM
- TGI (HT29 colon): 2.59 µM
- GI50 (IGROV1 ovarian): 1.62 µM
- TGI (IGROV1 ovarian): 3.05 µM
- GI50 (K-562 leukemia): 1.11 µM
- TGI (K-562 leukemia): 2.36 µM
- GI50 (KM12 colon): 1.6 µM
- TGI (KM12 colon): 3 µM
- GI50 (M14 melanoma): 1.73 µM
- TGI (M14 melanoma): 3.11 µM
- GI50 (MALME-3M melanoma): 1.68 µM
- TGI (MALME-3M melanoma): 3.06 µM
- GI50 (MCF7 breast): 1.14 µM
- TGI (MCF7 breast): 2.37 µM
- GI50 (MDA-MB-231 breast): 1.42 µM
- TGI (MDA-MB-231 breast): 2.76 µM
- GI50 (MDA-MB-435 melanoma): 1.44 µM
- TGI (MDA-MB-435 melanoma): 2.76 µM
- GI50 (MDA-MB-468 breast): 1 µM
- TGI (MDA-MB-468 breast): 2.17 µM
- GI50 (MOLT-4 leukemia): 1.13 µM
- TGI (MOLT-4 leukemia): 2.35 µM
- GI50 (NCI-H226 lung): 1.43 µM
- TGI (NCI-H226 lung): 2.83 µM
- GI50 (NCI-H23 lung): 1.54 µM
- TGI (NCI-H23 lung): 3.15 µM
- GI50 (NCI-H322M lung): 2.18 µM
- TGI (NCI-H322M lung): 4.1 µM
- TGI (NCI-H460 NSCLC): 1.44 µM
- GI50 (NCI-H522 lung): 1.16 µM
- TGI (NCI-H522 lung): 2.39 µM
- GI50 (OVCAR-3 ovarian): 1.62 µM
- TGI (OVCAR-3 ovarian): 3.16 µM
- GI50 (OVCAR-4 ovarian): 1.49 µM
- TGI (OVCAR-4 ovarian): 3.24 µM
- GI50 (OVCAR-5 ovarian): 1.25 µM
- TGI (OVCAR-5 ovarian): 2.61 µM
- GI50 (OVCAR-8 ovarian): 1.6 µM
- TGI (OVCAR-8 ovarian): 2.97 µM
- GI50 (PC-3 prostate): 1.46 µM
- TGI (PC-3 prostate): 2.91 µM
- GI50 (RXF 393 renal): 1.17 µM
- TGI (RXF 393 renal): 2.39 µM
- GI50 (SF-268 CNS): 1.59 µM
- TGI (SF-268 CNS): 2.96 µM
- GI50 (SF-295 CNS): 1.64 µM
- TGI (SF-295 CNS): 3.02 µM
- GI50 (SF-539 CNS): 1.42 µM
- TGI (SF-539 CNS): 2.74 µM
- GI50 (SK-MEL-2 melanoma): 1.27 µM
- TGI (SK-MEL-2 melanoma): 2.54 µM
- GI50 (SK-MEL-28 melanoma): 1.63 µM
- TGI (SK-MEL-28 melanoma): 3.01 µM
- GI50 (SK-MEL-5 melanoma): 1.03 µM
- TGI (SK-MEL-5 melanoma): 2.22 µM
- GI50 (SK-OV-3 ovarian): 1.47 µM
- TGI (SK-OV-3 ovarian): 2.85 µM
- GI50 (SN12C renal): 1.56 µM
- TGI (SN12C renal): 2.91 µM
- GI50 (SNB-19 CNS): 2.06 µM
- TGI (SNB-19 CNS): 4.04 µM
- GI50 (SNB-75 CNS): 1.59 µM
- TGI (SNB-75 CNS): 2.96 µM
- GI50 (SR leukemia): 0.0345 µM
- TGI (SR leukemia): 0.125 µM
- GI50 (SW-620 colon): 1.43 µM
- TGI (SW-620 colon): 2.78 µM
- GI50 (T-47D breast): 1.35 µM
- TGI (T-47D breast): 2.66 µM
- GI50 (TK-10 renal): 1.52 µM
- TGI (TK-10 renal): 2.9 µM
- GI50 (U251 glioblastoma): 1.6 µM
- TGI (U251 glioblastoma): 2.96 µM
- GI50 (UACC-257 melanoma): 1.38 µM
- TGI (UACC-257 melanoma): 2.69 µM
- GI50 (UACC-62 melanoma): 1.72 µM
- TGI (UACC-62 melanoma): 3.1 µM
- GI50 (UO-31 renal): 1.79 µM
- TGI (UO-31 renal): 3.19 µM
